# Results from patent US20240228458A1, “PYRIMIDINE DERIVATIVE HAVING PROTEIN KINASE INHIBITORY ACTIVITY, AND THERAPEUTIC PHARMACEUTICAL COMPOSITION COMPRISING SAME” (THERAPEX CO., LTD., priority 2021, published 2024).
# Legend:
# Type in all cases: cell-based
# [1] = test system: Ba/F3 cells expressing EGFR-wt; experiment: Growth inhibition (GI50) of Ba/F3 cells expressing EGFR-wt, Celltiter glo
# In short: (§1)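 Viability read by CellTiter-Glo after 72 h compound exposure (37 °C, 5% CO2) of variant-expressing Ba/F3 cells plated at 100,000 cells/ml. Dosing 4 h post-seeding; 10-pt 4-fold series from 2 mM stock; 0.5% DMSO. GI50 = molar concentration (μM) giving half-maximal growth inhibition.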
# [2] = test system: Ba/F3 cells expressing del19/T790M/C797S (EGFR-DTC); experiment: Growth inhibition (GI50) of Ba/F3 cells expressing del19/T790M/C797S (EGFR-DTC), Celltiter glo
# In short: as §1
# [3] = test system: Ba/F3 cells expressing L858R/T790M/C797S (EGFR-LTC); experiment: Growth inhibition (GI50) of Ba/F3 cells expressing L858R/T790M/C797S (EGFR-LTC), Celltiter glo
# In short: as §1
# [4] = test system: Ba/F3 cells expressing del19/T790M (EGFR-DT); experiment: Growth inhibition (GI50) of Ba/F3 cells expressing del19/T790M (EGFR-DT), Celltiter glo
# In short: as §1
# [5] = test system: Ba/F3 cells expressing L858R/T790M (EGFR-LT); experiment: Growth inhibition (GI50) of Ba/F3 cells expressing L858R/T790M (EGFR-LT), Celltiter glo
# In short: as §1
# parental Ba/F3 cell line = experiment: Growth inhibition (GI50) of the parental Ba/F3 cell line (not introduced with EGFR variants), Celltiter glo; conditions: parental Ba/F3 cells
# In short: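 Parental Ba/F3 cells (100,000 cells/ml) were treated with 10-point, 4-fold compound dilutions (0.5% DMSO; top stock 2 mM) for 72 h at 37 °C, 5% CO2. Viability was read by CellTiter-Glo; GI50 is the concentration (μM) giving 50% growth inhibition.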
Compound,"GI50 ([1]; Mus musculus, BaF3, 72 h) [nM]","GI50 ([2]; Mus musculus, BaF3, 72 h) [nM]","GI50 ([3]; Mus musculus, BaF3, 72 h) [nM]","GI50 ([4]; Mus musculus, BaF3, 72 h) [nM]","GI50 ([5]; Mus musculus, BaF3, 72 h) [nM]","GI50 (parental Ba/F3 cell line; Mus musculus, BaF3, 72 h) [nM]",GI50 ([1]; 72 h) [nM],GI50 ([2]; 72 h) [nM],GI50 ([3]; 72 h) [nM],GI50 ([4]; 72 h) [nM],GI50 ([5]; 72 h) [nM],GI50 (parental Ba/F3 cell line; 72 h) [nM]
"COc1cc(N2CCC(N3CCN(C4CC4)CC3)CC2)c(C)cc1Nc1ncc(Cl)c(Nc2cc3c(cc2N(C)S(C)(=O)=O)CCO3)n1 [Example 266, N-(6-((5-chloro-2-((4-(4-(4-cyclopropylpiperazin-1-yl)piperidin-1-yl)-2-methoxy-5-methylphenyl)amino)pyrimidin-4-yl)amino)-2,3-dihydrobenzofuran-5-yl)-N-methylmethanesulfonamide]",2000 to 10000,500 to 2000,100 to 500,25 to 100,100 to 500,2000 to 10000,–,–,–,–,–,–
"COc1cc(N2CCC(N3CCCC(N(C)C)C3)CC2)c(C)cc1Nc1ncc(Cl)c(Nc2cc3c(cc2N(C)S(C)(=O)=O)CCO3)n1 (stereo not drawn) [Example 267, N-(6-((5-chloro-2-((4-(3-(dimethylamino)-[1,4′-bipiperidin]-1′-yl)-2-methoxy-5-methylphenyl)amino)pyrimidin-4-yl)amino)-2,3-dihydrobenzofuran-5-yl)-N-methylmethanesulfonamide]",500 to 2000,100 to 500,25 to 100,25 to 100,25 to 100,500 to 2000,–,–,–,–,–,–
"CN1CCN(C2CCN(c3cc(F)c(Nc4ncc(Cl)c(Nc5cc6c(cc5NS(C)(=O)=O)CCO6)n4)cc3F)CC2)CC1 [Example 268, N-(6-((5-chloro-2-((2,5-difluoro-4-(4-(4-methylpiperazin-1-yl)piperidin-1-yl)phenyl)amino)pyrimidin-4-yl)amino)-2,3-dihydrobenzofuran-5-yl)methanesulfonamide]",500 to 2000,100 to 500,100 to 500,25 to 100,25 to 100,2000 to 10000,–,–,–,–,–,–
"COc1cc(N2CCC(N3CCN(C)CC3)CC2)c(Br)cc1Nc1ncc(Cl)c(Nc2cc3c(cc2NS(C)(=O)=O)CCO3)n1 [Example 270, N-(6-((2-((5-Bromo-2-methoxy-4-(4-(4-methylpiperazin-1-yl)piperidin-1-yl)phenyl)amino)-5-chloropyrimidin-4-yl)amino)-2,3-dihydrobenzofuran-5-yl)methanesulfonamide]",500 to 2000,1 to 25,1 to 25,1 to 25,1 to 25,500 to 2000,–,–,–,–,–,–
"COc1cc(N2CCC(N3CCN(C)CC3)CC2)c(Br)cc1Nc1ncc(Br)c(Nc2cc3c(cc2NS(C)(=O)=O)CCO3)n1 [Example 271, N-(6-((2-((5-bromo-2-methoxy-4-(4-(4-methylpiperazin-1-yl)piperidin-1-yl)phenyl)amino)-5-bromopyrimidin-4-yl)amino)-2,3-dihydrobenzofuran-5-yl)methanesulfonamide]",2000 to 10000,1 to 25,1 to 25,1 to 25,1 to 25,2000 to 10000,–,–,–,–,–,–
COc1cc(N2CCC(N3CCN(C)CC3)CC2)c(C)cc1Nc1ncc(Cl)c(Nc2ccc3c(c2)N(C)CC3)n1 [Example 272],2000 to 10000,500 to 2000,500 to 2000,500 to 2000,500 to 2000,2000 to 10000,–,–,–,–,–,–
COc1cc(N2CCC(N3CCN(C)CC3)CC2)c(Cl)cc1Nc1ncc(Cl)c(Nc2ccc3c(c2)N(C)CC3)n1 [Example 273],25 to 100,500 to 2000,100 to 500,500 to 2000,100 to 500,500 to 2000,–,–,–,–,–,–
Cc1cc(Nc2ncc(Cl)c(Nc3ccc4c(c3)N(C)CC4)n2)c(Cl)cc1N1CCC(N2CCN(C)CC2)CC1 [Example 274],25 to 100,2000 to 10000,500 to 2000,500 to 2000,500 to 2000,500 to 2000,–,–,–,–,–,–
COc1cc(N2CCC(N3CCCN(C)CC3)CC2)c(C)cc1Nc1ncc(Cl)c(Nc2ccc3c(c2)N(C)CC3)n1 [Example 275],100 to 500,500 to 2000,500 to 2000,100 to 500,500 to 2000,500 to 2000,–,–,–,–,–,–
"COc1cc(N2CCC(N3CCN(C)CC3)CC2)c(C)cc1Nc1ncc(Cl)c(Nc2cc3c(cc2NS(C)(=O)=O)CCN3C)n1 [Example 276, N-(6-((5-chloro-2-((2-methoxy-5-methyl-4-(4-(4-methylpiperazin-1-yl)piperidin-1-yl)phenyl)amino)pyrimidin-4-yl)amino)-1-methylindolin-5-yl)methanesulfonamide]",500 to 2000,100 to 500,100 to 500,25 to 100,100 to 500,2000 to 10000,–,–,–,–,–,–
Cc1cc(Nc2ncc(Cl)c(Nc3ccc4c(c3)NCC4)n2)c(Cl)cc1N1CCC(N2CCN(C)CC2)CC1 [Example 277],> 10000,> 10000,> 10000,2000 to 10000,2000 to 10000,2000 to 10000,–,–,–,–,–,–
COc1cc(N2CCC(N3CCN(C)CC3)CC2)c(Cl)cc1Nc1ncc(Cl)c(Nc2ccc3c(c2)NCC3)n1 [Example 278],> 10000,2000 to 10000,> 10000,> 10000,2000 to 10000,2000 to 10000,–,–,–,–,–,–
COc1cc(N2CCC(N3CCN(C)CC3)CC2)ccc1Nc1ncc(Cl)c(Nc2ccc3c(c2)NCC3)n1 [Example 279],2000 to 10000,2000 to 10000,2000 to 10000,100 to 500,500 to 2000,2000 to 10000,–,–,–,–,–,–
"COc1cc(N2CCC(N3CCCC(N(C)C)C3)CC2)c(Br)cc1Nc1ncc(Cl)c(Nc2cc3c(cc2NS(C)(=O)=O)CCO3)n1 (stereo not drawn) [Example 280, N-(6-((2-((5-bromo-4-(3-(dimethylamino)-[1,4′-bipiperidin]-1′-yl)-2-methoxyphenyl)amino)-5-chloropyrimidin-4-yl)amino)-2,3-dihydrobenzofuran-5-yl)methanesulfonamide]",25 to 100,100 to 500,1 to 25,1 to 25,1 to 25,2000 to 10000,–,–,–,–,–,–
"COc1cc(N2CCC(N3CCCC(N(C)C)C3)CC2)c(Br)cc1Nc1ncc(Br)c(Nc2cc3c(cc2NS(C)(=O)=O)CCO3)n1 (stereo not drawn) [Example 281, N-(6-((5-bromo-2-((5-bromo-4-(3-(dimethylamino)-[1,4′-bipiperidin]-1′-yl)-2-methoxyphenyl)amino)pyrimidin-4-yl)amino)-2,3-dihydrobenzofuran-5-yl)methanesulfonamide]",100 to 500,25 to 100,1 to 25,1 to 25,1 to 25,100 to 500,–,–,–,–,–,–
"COc1cc(N2CCC(N3CCCN(C)CC3)CC2)c(Br)cc1Nc1ncc(Cl)c(Nc2cc3c(cc2NS(C)(=O)=O)CCO3)n1 [Example 282, N-(6-((2-((5-bromo-2-methoxy-4-(4-(4-methyl-1,4-diazepan-1-yl)piperidin-1-yl)phenyl)amino)-5-chloropyrimidin-4-yl)amino)-2,3-dihydrobenzofuran-5-yl)methanesulfonamide]",100 to 500,100 to 500,25 to 100,1 to 25,1 to 25,2000 to 10000,–,–,–,–,–,–
"COc1cc(N2CCC(N3CCC(N(C)C)C3)CC2)c(Br)cc1Nc1ncc(Cl)c(Nc2cc3c(cc2NS(C)(=O)=O)CCO3)n1 (stereo not drawn) [Example 283, N-(6-((2-((5-bromo-4-(4-(3-(dimethylamino)pyrrolidin-1-yl)piperidin-1-yl)-2-methoxyphenyl)amino)-5-chloropyrimidin-4-yl)amino)-2,3-dihydrobenzofuran-5-yl)methanesulfonamide]",100 to 500,100 to 500,25 to 100,1 to 25,1 to 25,2000 to 10000,–,–,–,–,–,–
COc1cc(N2CCC(N3CCN(C)CC3)CC2)c(C)cc1Nc1ncc(Br)c(Nc2ccc3nccnc3c2P(C)(C)=O)n1 [TQB-3804],–,–,–,–,–,–,500 to 2000,25 to 100,25 to 100,100 to 500,100 to 500,500 to 2000
